# Measurements taken from patent publication US20210154188A1, “ALK5 INHIBITORS, CONJUGATES, AND USES THEREOF” (SILVERBACK THERAPEUTICS, INC., priority 2018, published 2021).
# pIC50: −log10 of the molar value.
# Legend:
# [1] = tested on: TGFb/SMAD Signaling Pathway SBE reporter cell line; test: TGFb reporter assay (luciferase); type: cell-based; details: 5-6 h preincubation, then TGFb, 18 h, luminescence
# Experimental: TGFb/SMAD Signaling Pathway SBE reporter cell line was obtained from BPS Bioscience. Cells were passed/expanded/stored in liquid nitrogen per supplier's instruction with the exception that growth media was changed to DMEM-C with Geneticin (DMEM supplemented with 10% fetal bovine serum, 1× NEAA, 1 mM Pyruvate, 2 mM glutamine, 50 μg/mL penicillin, 50 U/mL streptomycin and 400 ug/mL of Geneticin). The assay media was MEM supplemented with 0.5% fetal bovine serum, 1× NEAA, 1 mM Pyruvate, 50 μg/mL penicillin and 50 U/mL streptomycin.
# Reporter cells were harvested from the tissue culture flasks by incubation in small quantity of Versene at room temperature for three to five minutes after the media in the flask was removed and cells rinsed with PBS. Cells were counted and diluted in the assay media at ˜0.8×10^6 cells/mL then 50 uL/well were added to 96-well assay plate. Test samples (at desired concentrations diluted in assay media) were added to assay plate containing the 50 uL/well of cells (or media only), 50 uL per well, and incubated for 5-6 hours at 37° C. in a 5% CO2 humidified incubator. After that time, 15 uL of TGFb diluted to 12.5 ng/mL in the assay media was added to the plate. Controls included TGFb titration (from 25 to 0 ng/mL) without inhibitors, and media only (without cells, inhibitor or TGFb). Plates were incubated at 37° C. in a 5% CO2 humidified incubator for 18 h. Luciferase substrate solution was subsequently added at 75 uL per well, incubated in dark with shaking at room temperature for 10 min, and luminescence was measured using a luminometer.
# [2] = target: T1, ALK5 (Homo sapiens, UniProt P36897); test: ALK5 enzyme inhibition assay (33P-ATP filter-binding, Reaction Biology Corp); type: biochemical; details: casein substrate 1 mg/mL, 10 uM ATP
# T1 construct: purchased Reaction Biology Corp (Malvern, PA)
# T1 sequence (P36897 34-503): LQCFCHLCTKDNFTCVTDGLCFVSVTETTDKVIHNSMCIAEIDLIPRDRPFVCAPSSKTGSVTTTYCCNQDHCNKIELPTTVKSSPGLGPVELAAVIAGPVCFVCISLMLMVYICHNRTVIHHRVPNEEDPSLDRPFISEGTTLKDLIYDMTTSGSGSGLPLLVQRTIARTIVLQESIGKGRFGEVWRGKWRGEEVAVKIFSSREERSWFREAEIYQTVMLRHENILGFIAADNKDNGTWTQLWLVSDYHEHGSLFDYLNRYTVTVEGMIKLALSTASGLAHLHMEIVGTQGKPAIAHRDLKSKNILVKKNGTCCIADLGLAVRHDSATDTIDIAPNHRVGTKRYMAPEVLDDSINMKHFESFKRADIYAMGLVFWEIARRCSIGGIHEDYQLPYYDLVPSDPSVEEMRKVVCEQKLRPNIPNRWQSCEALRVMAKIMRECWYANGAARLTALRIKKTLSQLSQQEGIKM
# Experimental: ALK5 enzyme inhibition assays were performed by Reaction Biology Corp (Malvern, PA). 1 mg/mL of peptide subtrate (casein) and 10 uM ATP were prepared in a mixture of fresh reaction buffer. The kinase was delivered into the substrate solution which was gently mixed. Compounds in 100% DMSO were added to the kinase reaction mixture by Acoustic technology (Echo550; nanoliter range) and the mixture was incubated for 20 min at room temperature. ^33P-ATP (Specific activity 10 uCi/uL) was added into the reaction mixture to initiate the reaction and the reaction mixture was incubated for 2 hours at room temperature. Radioactivity was detected by filter-binding method and kinase activity data were expressed as the percent remaining kinase activity in test samples compared to vehicle (dimethyl sulfoxide) reactions. IC50 values and curve fits were obtained using Prism (GraphPad Software).
Structure (SMILES),pIC50 [1],pIC50 [2]
"Cc1cccc(-c2nc(CNC3CC3)[nH]c2-c2ccc3ncnn3c2)n1 [Compound 1.7, N-((5-([1,2,4]triazolo[1,5-a]pyridin-6-yl)-4-(6-methylpyridin-2-yl)-1H-imidazol-2-yl)methyl)-cyclopropanamine]",6.00 to 7.00,5.00 to 6.00
"Cc1cccc(-c2nc(CNCC3CC3)[nH]c2-c2ccc3ncnn3c2)n1 [Compound 1.8, 1-(5-([1,2,4]triazolo[1,5-a]pyridin-6-yl)-4-(6-methylpyridin-2-yl)-1H-imidazol-2-yl)-N-(cyclopropyl-methyl)methanamine]",6.00 to 7.00,5.00 to 6.00
"Cc1cccc(-c2nc(CNC3CCC3)[nH]c2-c2ccc3ncnn3c2)n1 [Compound 1.10, 1-(5-([1,2,4]triazolo[1,5-a]pyridin-6-yl)-4-(6-methylpyridin-2-yl)-1H-imidazol-2-yl)-N-(cyclobutyl)methanamine]",6.00 to 7.00,5.00 to 6.00
"Cc1cccc(-c2nc(CNc3cncc(CN)c3)[nH]c2-c2ccc3ncnn3c2)n1 [Compound 1.19, N-((5-([1,2,4]triazolo[1,5-a]pyridin-6-yl)-4-(6-methylpyridin-2-yl)-1H-imidazol-2-yl)methyl)-5-(aminomethyl)pyridin-3-amine]",6.00 to 7.00,5.00 to 6.00
"CC(=O)NC1Cc2ccc(NCc3nc(-c4cccc(C)n4)c(-c4ccc5ncnn5c4)[nH]3)cc2C1 (stereo not shown) [Compound 1.25, N-(5-(((5-([1,2,4]triazolo[1,5-a]pyridin-6-yl)-4-(6-methylpyridin-2-yl)-1H-imidazol-2-yl)methyl)amino)-2,3-dihydro-1H-inden-2-yl)acetamide]",6.00 to 7.00,6.00 to 7.00
"Cc1cccc(-c2nc(CNc3cccc4c3CNC4)[nH]c2-c2ccc3ncnn3c2)n1 [Compound 1.31, N-((5-([1,2,4]triazolo[1,5-a]pyridin-6-yl)-4-(6-methylpyridin-2-yl)-1H-imidazol-2-yl)methyl)isoindolin-4-amine]",6.00 to 7.00,6.00 to 7.00
"Cc1cccc(-c2nc(CN[C@H]3CCCC[C@@H]3F)[nH]c2-c2ccc3ncnn3c2)n1 [Compound 1.32, (1S,2S)-N-((5-([1,2,4]triazolo[1,5-a]pyridin-6-yl)-4-(6-methylpyridin-2-yl)-1H-imidazol-2-yl)methyl)-2-fluorocyclohexan-1-amine]",6.00 to 7.00,7.00 to 8.00
"Cc1cccc(-c2nc(C3CCN(C(=O)OC(C)(C)C)C3)[nH]c2-c2ccc3ncnn3c2)n1 (stereo not shown) [Compound 1.51, tert-butyl 3-(5-([1,2,4]triazolo[1,5-a]pyridin-6-yl)-4-(6-methylpyridin-2-yl)-1H-imidazol-2-yl)pyrrolidine-1-carboxylate]",6.00 to 7.00,
"Cc1cccc(-c2nc(C3CN(C(=O)OC(C)(C)C)C3)[nH]c2-c2ccc3ncnn3c2)n1 [Compound 1.52, tert-butyl 3-(5-([1,2,4]triazolo[1,5-a]pyridin-6-yl)-4-(6-methylpyridin-2-yl)-1H-imidazol-2-yl)azetidine-1-carboxylate]",6.00 to 7.00,
"Cc1cccc(-c2nc(C3CNC3)[nH]c2-c2ccc3ncnn3c2)n1 [Compound 1.53, 6-(2-(azetidin-3-yl)-4-(6-methylpyridin-2-yl)-1H-imidazol-5-yl)-[1,2,4]triazolo[1,5-a]pyridine]",5.00 to 6.00,
"Cc1cccc(-c2nc(C34CCC(N)(CC3)CC4)[nH]c2-c2ccc3ncnn3c2)n1 [Compound 1.55, 4-(5-([1,2,4]triazolo[1,5-a]pyridin-6-yl)-4-(6-methylpyridin-2-yl)-1H-imidazol-2-yl)bicyclo[2.2.2]octan-1-amine]",5.00 to 6.00,

# Now from value to compound:
pIC50 [1],pIC50 [2],Structure (SMILES)
7.00 to 8.00,6.00 to 7.00,"Cc1cccc(-c2nc(CNC3CCc4ccccc43)[nH]c2-c2ccc3ncnn3c2)n1 (racemic) [Compound 1.26, rac-N-((5-([1,2,4]triazolo[1,5-a]pyridin-6-yl)-4-(6-methylpyridin-2-yl)-1H-imidazol-2-yl)methyl)-2,3-dihydro-1H-inden-1-amine]"
6.00 to 7.00,6.00 to 7.00,"Cc1cccc(-c2nc(CNc3ccc4c(c3)CNCC4)[nH]c2-c2ccc3ncnn3c2)n1 [Compound 1.1, N-((5-([1,2,4]triazolo[1,5-a]pyridin-6-yl)-4-(6-methylpyridin-2-yl)-1H-imidazol-2-yl)methyl)-1,2,3,4-tetrahydroisoquinolin-7-amine]"
6.00 to 7.00,6.00 to 7.00,"Cc1cccc(-c2nc(CNc3ccc4c(c3)CCNC4)[nH]c2-c2ccc3ncnn3c2)n1 [Compound 1.2, N-((5-([1,2,4]triazolo[1,5-a]pyridin-6-yl)-4-(6-methylpyridin-2-yl)-1H-imidazol-2-yl)methyl)-1,2,3,4-tetrahydroisoquinolin-6-amine]"
6.00 to 7.00,6.00 to 7.00,"Cc1cccc(-c2nc(CNc3cccc4c3CNCC4)[nH]c2-c2ccc3ncnn3c2)n1 [Compound 1.3, N-((5-([1,2,4]triazolo[1,5-a]pyridin-6-yl)-4-(6-methylpyridin-2-yl)-1H-imidazol-2-yl)methyl)-1,2,3,4-tetrahydroisoquinolin-8-amine]"
6.00 to 7.00,6.00 to 7.00,"Cc1cccc(-c2nc(CNc3cccc4c3CCNC4)[nH]c2-c2ccc3ncnn3c2)n1 [Compound 1.4, N-((5-([1,2,4]triazolo[1,5-a]pyridin-6-yl)-4-(6-methylpyridin-2-yl)-1H-imidazol-2-yl)methyl)-1,2,3,4-tetrahydroisoquinolin-5-amine]"
7.00 to 8.00,6.00 to 7.00,"Cc1cccc(-c2nc(CNC3CCCC3)[nH]c2-c2ccc3ncnn3c2)n1 [Compound 1.11, 1-(5-([1,2,4]triazolo[1,5-a]pyridin-6-yl)-4-(6-methylpyridin-2-yl)-1H-imidazol-2-yl)-N-(cyclopentyl)methanamine]"
7.00 to 8.00,6.00 to 7.00,"Cc1cccc(-c2nc(CNC3CCCCC3)[nH]c2-c2ccc3ncnn3c2)n1 [Compound 1.12, 1-(5-([1,2,4]triazolo[1,5-a]pyridin-6-yl)-4-(6-methylpyridin-2-yl)-1H-imidazol-2-yl)-N-(cyclohexyl)methanamine]"
7.00 to 8.00,6.00 to 7.00,"Cc1cccc(-c2nc(CNC3CCCCCC3)[nH]c2-c2ccc3ncnn3c2)n1 [Compound 1.13, 1-(5-([1,2,4]triazolo[1,5-a]pyridin-6-yl)-4-(6-methylpyridin-2-yl)-1H-imidazol-2-yl)-N-(cycloheptyl)methanamine]"
7.00 to 8.00,6.00 to 7.00,"Cc1cccc(-c2nc(CNC3CCOCC3)[nH]c2-c2ccc3ncnn3c2)n1 [Compound 1.14, 1-(5-([1,2,4]triazolo[1,5-a]pyridin-6-yl)-4-(6-methylpyridin-2-yl)-1H-imidazol-2-yl)-N-(4-tetrahydropyranyl)methanamine]"
7.00 to 8.00,6.00 to 7.00,"Cc1cccc(-c2nc(CNC3Cc4ccccc4C3)[nH]c2-c2ccc3ncnn3c2)n1 [Compound 1.27, N-((5-([1,2,4]triazolo[1,5-a]pyridin-6-yl)-4-(6-methylpyridin-2-yl)-1H-imidazol-2-yl)methyl)-2,3-dihydro-1H-inden-2-amine]"
7.00 to 8.00,6.00 to 7.00,"Cc1cccc(-c2nc(CN[C@@H]3CCc4ccccc43)[nH]c2-c2ccc3ncnn3c2)n1 [Compound 1.30, (R)-N-((5-([1,2,4]triazolo[1,5-a]pyridin-6-yl)-4-(6-methylpyridin-2-yl)-1H-imidazol-2-yl)methyl)-2,3-dihydro-1H-inden-1-amine]"
